Each structure is given as a SMILES string.

The nature of data set [1]: Blood counts (hemoglobin, hematocrit, white blood cells) in mice receiving AZT, BAU and/or DPR; pooled blood, Coulter Counter. The data set is classed as in vivo, Female Balb/c mice. Also on record: Hb (hemoglobin) / Hct (hematocrit): unit not given here. On the procedure:
For oral administration, BAU was dissolved in water to achieve a final concentration of 0.3 mg/mL. For intraperitoneal administration, BAU was dissolved in dimethylsulfoxide (DMSO) to achieve final concentrations of 60, 100, or 120 mg/mL.
The solution was centrifuged at 15,000 rpm for 20 minutes.
(§1) Female Balb/c mice, 6-12 weeks old, were purchased from the Animal Care Facility of the Roger Williams Cancer Center. The animals were randomly divided into eight groups. Six of the treatment protocols were performed in duplicate. Each group contained either eight or nine animals. The animals were weighed once weekly. Food and water was available ad libitum. Blood samples were obtained from the tail vein. The first blood sample was obtained on Day 0 and subsequent samples were obtained on Days 19, 27, 34 and 44, 48, 54 and 68 after the initiation of drug treatment. With each sampling, approximately 100 ul of blood was removed from each animal. The blood obtained from the animals in each group was pooled and analyzed by Coulter Counter. On each sample, hemoglobin, hematocrit, and white blood cell count were determined. The mean red cell volume was calculated. The Treatment Groups were as follows:
DMSO was given ip, 0.O1 mL/5 grams body weight, once weekly.
Group 4--BAU 240 mg/kg, ip, once weekly.
This corresponds to a daily administered dose of 43 mg/kg.
The concentration was 0.69 mg/ml which corresponds to an administered dose of 100 mg/kg/day.

A short description of data set [2]: Oral bioavailability of BAU. The note with it: in vivo, 43 mg/kg, drinking water, read-out: bioavailability of BAU administered orally. How it is done: Group 7--AZT administered in the drinking water (1 mg/mL) and BAU administered in the same container of drinking water (0.3 mg/mL). This corresponds to a daily administered dose of 43 mg/kg. The bioavailability of BAU administered orally was 80%. Therefore, the bioavailable dose of BAU administered to this group was 240 mg/kg/week.

The test system of the next data set is uridine phosphorylase. Particulars: cited from earlier work.
Data set [3] relates to human bone marrow progenitor (HBMP) cells. Particulars: in vitro; cited from earlier work.
The conditions of data set [4]: human, in vivo; cited from earlier work.
The nature of data set [5]: Weekly body weight of treated mice. In kind it is in vivo, Female Balb/c mice. The note with it: measured each week. On the procedure: as §1
Body weights of the animals in the treatment groups were measured each week.

Data set [6] deals with granulocyte macrophage colony forming cells. The note with it: in vitro; cited from earlier work.
The test system of data set [7] is erythroid burst-forming cells. Particulars: in vitro; cited from earlier work.
The test system of data set [8] is human immunodifficiency virus reverse transcriptase. Particulars: cited from earlier work.
[9] abbreviates: Day 0, AZT 1 mg/mL and/or DPR 0.69 mg/mL in drinking water, no BAU (Groups 3, 8, 9).
Setting [10] is: Day 19, AZT 1 mg/mL and/or DPR 0.69 mg/mL in drinking water, no BAU (Groups 3, 8, 9).
The mark [11] stands for this setting: Day 27, AZT 1 mg/mL and/or DPR 0.69 mg/mL in drinking water, no BAU (Groups 3, 8, 9).
The mark [12] stands for this setting: Day 34, AZT 1 mg/mL and/or DPR 0.69 mg/mL in drinking water, no BAU (Groups 3, 8, 9).
The mark [13] stands for this setting: Day 44, DPR 0.69 mg/mL with or without AZT 1 mg/mL in drinking water (Groups 8, 9).
Where [14] appears, read: Day 54, DPR 0.69 mg/mL with or without AZT 1 mg/mL in drinking water (Groups 8, 9).
[15] abbreviates: Day 68, DPR 0.69 mg/mL with or without AZT 1 mg/mL in drinking water (Groups 8, 9).
[16] abbreviates: Day 0, BAU 240 mg/kg ip once weekly, without (Group 4) or with (Group 5) AZT 1 mg/mL in drinking water.
Setting [17] is: Day 19, BAU 240 mg/kg ip once weekly, without (Group 4) or with (Group 5) AZT 1 mg/mL in drinking water.
The mark [18] stands for this setting: Day 27, BAU 240 mg/kg ip once weekly, without (Group 4) or with (Group 5) AZT 1 mg/mL in drinking water.
Setting [19] is: Day 34, BAU 240 mg/kg ip once weekly, without (Group 4) or with (Group 5) AZT 1 mg/mL in drinking water.
Setting [20] is: Day 48, BAU 240 mg/kg ip once weekly, without (Group 4) or with (Group 5) AZT 1 mg/mL in drinking water.
[21] abbreviates: Day 0, AZT 1 mg/mL in drinking water (145 mg/kg/day) + DMSO ip once weekly (Group 2).
Setting [22] is: Day 19, AZT 1 mg/mL in drinking water (145 mg/kg/day) + DMSO ip once weekly (Group 2).
Where [23] appears, read: Day 27, AZT 1 mg/mL in drinking water (145 mg/kg/day) + DMSO ip once weekly (Group 2).
[24] abbreviates: Day 34, AZT 1 mg/mL in drinking water (145 mg/kg/day) + DMSO ip once weekly (Group 2).
[25] abbreviates: Day 48, AZT 1 mg/mL in drinking water (145 mg/kg/day) + DMSO ip once weekly (Group 2).
Where [26] appears, read: Day 48, AZT 1 mg/mL in drinking water (Group 3).

As for `OCCN(CCO)c1nc(N2CCCCC2)c2nc(N(CCO)CCO)nc(N3CCCCC3)c2n1` [DPR, 2,2',2"2'"-(4,8-dipiperidinopyimidol[5,4-d]pyrimidene-2,6-diyldinitrilo) tetraethanol], the “Hb (hemoglobin)” value in data set [1] (setting [9]) worked out at 16.5; in data set [1] (setting [10]), 14.3; in [1] (setting [11]) it was 15.5; in data set [1] (setting [12]) it was 14.8; in data set [1] (setting [13]), 14.6; in data set [1] (setting [14]), 15.4. For the same molecule, the “Hb (hemoglobin)” value in data set [1] (setting [15]) came to 15.7. The “Hct (hematocrit)” value in [1] (setting [9]) amounted to 48.0; in [1] (setting [10]), 49; in [1] (setting [11]) it was 45; in data set [1] (setting [12]), 45; in [1] (setting [13]), 45; in [1] (setting [14]), 46. Also, the “Hct (hematocrit)” value in data set [1] (setting [15]) is listed as 45. In addition, the “WBC (white blood cell count)” value in data set [1] (setting [9]) was 5.9; in data set [1] (setting [10]), 11.1; in data set [1] (setting [11]), 10; in data set [1] (setting [12]), 9.4; in [1] (setting [13]), 9.1; in [1] (setting [14]), 7.6. The “WBC (white blood cell count)” value in data set [1] (setting [15]) was 9.3.
For orientation: bioavailability means dose-corrected exposure relative to a reference, in per cent. `O=c1[nH]c(=O)n(COCCO)cc1Cc1ccccc1` [BAU, 5-benzylacyclouridine]: the “Hb (hemoglobin)” value is 18.3 in [1] (setting [16]); 17.3 in [1] (setting [17]); 16.2 in data set [1] (setting [18]); 17.2 in data set [1] (setting [19]); 16.6 in data set [1] (setting [20]). Also, the “Hct (hematocrit)” value in data set [1] (setting [16]) worked out at 52.0; in [1] (setting [17]) it was 50.0; in data set [1] (setting [18]), 51; in data set [1] (setting [19]), 50; in data set [1] (setting [20]), 49. Moreover, the “WBC (white blood cell count)” value in data set [1] (setting [16]) came to 8.8; in [1] (setting [17]), 10.8; in data set [1] (setting [18]) it was 6.6; in [1] (setting [19]) it was 7.9; in data set [1] (setting [20]), 6.4. In addition, the bioavailability in data set [2] was found to be 80%. Further, the “inhibition of cleavage of 5-fluoro-2'-deoxyuridine” value in the data set with uridine phosphorylase is listed as “inhibits the cleavage of the antineoplastic 5-fluoro-2'-deoxyuridine”. In the data set with uridine phosphorylase (cleavage of uridine to uracil), the “inhibition of uridine phosphorylase” value is “inhibitor of the enzyme uridine phosphorylase”.
Take `O=c1ccn([C@@H]2O[C@H](CO)[C@@H](O)[C@H]2O)c(=O)[nH]1` [uridine]: the “reversal of toxic effect of AZT in HBMP cells” value in [3] was “could reverse the toxic effect of AZT in HBMP cells”. Also, in data set [4], the body temperature entry was “rapid and potentially dangerous rises in body temperature”; the “elimination from the plasma” value is on record as “rapidly eliminated from the plasma”.
As for `Cc1cn([C@H]2C[C@H](N=[N+]=[N-])[C@@H](CO)O2)c(=O)[nH]c1=O` [AZT, 3'-Azido-3'-deoxythymidine], the “Hb (hemoglobin)” value in data set [1] (setting [9]) worked out at 17.3; in data set [1] (setting [21]) it was 17.3; in data set [1] (setting [10]), 13.7; in data set [1] (setting [22]), 12.8; in [1] (setting [11]) it was 13.6; in data set [1] (setting [23]), 13. Also, the “Hb (hemoglobin)” value turned out to be 13.9 in data set [1] (setting [12]), 11.6 in data set [1] (setting [24]), 11.0 in [1] (setting [25]) and 13.2 in data set [1] (setting [26]). For the same molecule, the “Hct (hematocrit)” value in data set [1] (setting [9]) came out at 43.0; in [1] (setting [21]) it was 49.0; in data set [1] (setting [10]) it was 43.0; in [1] (setting [22]) it was 36.0; in [1] (setting [11]), 43; in data set [1] (setting [23]), 40. The “Hct (hematocrit)” value in data set [1] (setting [12]) worked out at 42; in data set [1] (setting [24]) it was 35; in data set [1] (setting [25]), 33; in data set [1] (setting [26]), 34. The “WBC (white blood cell count)” value is 8.4 in data set [1] (setting [9]); 10.1 in data set [1] (setting [21]); 21.2 in data set [1] (setting [22]); 13.6 in data set [1] (setting [11]); 11.6 in data set [1] (setting [23]); 13.3 in data set [1] (setting [12]). Further, the “WBC (white blood cell count)” value is given as 11.5 in data set [1] (setting [24]), 5.0 in data set [1] (setting [25]) and 5.6 in data set [1] (setting [26]). Besides, the “nature of anemia produced in mice” value in data set [1] (mice) is “typical of AZT induced anemia in humans”. For the same molecule, the “body weight over time” value in data set [5] was “tended to lose weight as their anemia increased over time”. Also, the “inhibition of granulocyte macrophage colony forming cells” value in [6] is “consistently inhibit granulocyte macrophage colony forming cells and erythroid burst-forming cells in dose-dependent fashion”. Also, in [7], the “inhibition of erythroid burst-forming cells” value is “consistently inhibit granulocyte macrophage colony forming cells and erythroid burst-forming cells in dose-dependent fashion”. The “inhibition of HIV reverse transcriptase” value in [8] was “inhibits the human immunodifficiency virus reverse transcriptase”.
For the molecule `Nc1ccn([C@@H]2O[C@H](CO)[C@@H](O)[C@H]2O)c(=O)n1` [cytidine], the “reversal of toxic effect of AZT in HBMP cells” value in data set [3] is given as “could reverse the toxic effect of AZT in HBMP cells”.

The values are drawn from patent publication US4950466A, “Reduction of the severity of 3'-azido-3'-deoxythymidine-induced anemia using a combination of benzylacyclouridine and dipyridamole” (priority 1988, dated 1990).
